# Measured values reported in US20260103474A1, “NOVEL COMPOUNDS FOR THE DIAGNOSIS OF TDP-43 PROTEINOPATHIES” (AC IMMUNE SA, priority 2022, published 2026).
# Assays:
# [1] = molecular target: TDP-43 aggregates (Homo sapiens, UniProt Q13148); assay: Classical autoradiography in brain sections from patients with FTD; assay type: binding; conditions: for Specific binding in FTLD-TDP type A compared to control / Displacement on FTLD-TDP type A and B compared to non-demented control: classical autoradiography; for Specific binding in FTLD-TDP type A compared to control: one-way ANOVA with Tukey's correction; for cARG displacement on FTLD-TDP Type A case / cARG displacement on FTLD-TDP Type B case / cARG displacement on non-demented control: total binding divided by non-specific binding, grey matter, self-block with cold compound
# Sequence of TDP-43 aggregates (Q13148 whole entry): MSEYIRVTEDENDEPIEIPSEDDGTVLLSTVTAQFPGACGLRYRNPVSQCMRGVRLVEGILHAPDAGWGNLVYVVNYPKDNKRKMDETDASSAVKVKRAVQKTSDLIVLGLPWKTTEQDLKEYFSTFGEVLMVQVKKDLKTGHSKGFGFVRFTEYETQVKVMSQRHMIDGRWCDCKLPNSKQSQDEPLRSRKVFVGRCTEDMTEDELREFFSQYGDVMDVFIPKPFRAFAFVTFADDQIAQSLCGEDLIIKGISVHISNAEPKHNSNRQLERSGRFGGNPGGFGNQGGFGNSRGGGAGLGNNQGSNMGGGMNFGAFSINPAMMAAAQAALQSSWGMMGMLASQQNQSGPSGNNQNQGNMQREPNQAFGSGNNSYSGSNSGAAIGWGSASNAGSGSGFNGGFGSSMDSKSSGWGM
# Description: All tissues were collected from donors for or from whom a written informed consent for a brain autopsy and the use of the material and clinical information for research purposes had been obtained by the respective brain banks. All samples were anonymized and coded. Frozen brain tissue blocks with confirmed TDP-43 pathology upon autopsy were processed using a cryotome to generate sections of 10 μm in thickness and mounted on glass slides. Sections were kept at −80° C. until use.
# Brain sections were fixed for 15 minutes at 4° C. with 4% formaldehyde on ice and washed three times for eight minutes with 1×PBS at RT. Sections were blocked in assay buffer for 30 minutes (50 mM Tris-HCl, 0.9% NaCl+0.1% BSA). Cold test compound (Compound 1, Compound 8 or Compound 17) was diluted in assay buffer to 4 μM and applied on half of the sections for 40 minutes at RT to determine non-specific binding. The remaining half of the sections were only incubated with assay buffer (total binding). Following this incubation, an equal volume of the corresponding tritiated compound (i.e. [^3H]-Compound 1, [^3H]-Compound 8 or [^3H]-Compound 17, respectively), diluted to 20 nM (for [^3H]-Compound 1 and [^3H]-Compound 8) or 10 nM ([^3H]-Compound 17) or increasing concentration from 0.1 to 200 nM (for [^3H]-Compound 1 and [^3H]-Compound 17), was added on sections and incubated for 2 hours at RT and then washed as follows: once in ice-cold 50 mM Tris-HCl pH 7.4 buffer for one minute, twice in ice-cold PBS for one minute, once in ice-cold 50 mM Tris-HCl pH 7.4 buffer for one minute and finally rinsed briefly in ice-cold distilled water.
# Sections were subsequently dried under a stream of air and mounted with a copper-based adhesive strip. Bound radioactivity was quantified by exposing the slides in a real-time autoradiography system (Beaquant™ AI4R) for 2 hours, with measurement settings configured for tritium. Beavacq software (AI4R) was used to acquire the image which was subsequently quantified using Beamage image analysis software (AI4R). Specific binding (non-specific binding subtracted from total) and displacement (total binding divided by non-specific) were calculated. Bar graphs were generated using GraphPad Prism. For Kd determination on brain sections, the specific binding data were fitted with a non-linear regression analysis using a one-site specific binding model in GraphPad Prism.
# [2] = tested on: Tau tangles; assay: High resolution micro-autoradiography on AD brain sections; assay type: binding, human; conditions: tritiated compound 20 nM
# Description: The protocol was adapted from Marquie et al., 2015. AD sections were incubated with [^3H]-Compound 1, [^3H]-Compound 17 or [^3H]-Tau reference compound at 20 nM for one hour at room temperature (RT). Sections were then washed as follows: One time in ice-cold 50 mM Tris-HCl pH 7.4 buffer for one minute, two times in 70% ice-cold ethanol for one minute, one time in ice-cold 50 mM Tris-HCl pH 7.4 buffer for one minute and finally rinsed briefly in ice-cold distilled water. Sections were subsequently dried and then exposed to Ilford Nuclear Emulsion Type K5 (Agar Scientific, AGP9281) in a light-proof slide storage box. After five days, the sections were developed by immersing them successively in the following solutions: 1.) Ilford Phenisol Developer (1:5 dilution in H2O, Agar Scientific, AGP9106), 2.) Ilfostop solution (1:20 dilution in H2O, Agar Scientific, AGP9104), 3.) Ilford Hypam Fixer (1:5 dilution in H2O, Agar Scientific, AGP9183) and finally rinsed with H2O.
# Thioflavin S staining was performed on adjacent sections. For image acquisition, sections were mounted using ProLong Gold Antifade reagent (Invitrogen P36930) and imaged on a Panoramic150 Slide Scanner (3DHistech) with a 20× objective capturing separately brightfield and fluorescent images.
# [3] = molecular target: T1, Human brain derived TDP-43 aggregates (Homo sapiens, UniProt Q13148); assay: Micro-radiobinding competition assay for binding affinity to TDP-43; conditions: for Ki: 0.24 nM to 2 μM vs tritiated reference ligand at 40 nM; for Human brain derived TDP-43 aggregates Mean % competition at 250 nM: non-radiolabeled compound at 250 nM vs tritiated reference ligand at 40 nM; for Human brain derived TDP-43 aggregates Mean % competition at 250 nM / Human brain derived TDP-43 aggregates Mean % competition at 2 μM: FTD sarkosyl-insoluble brain extracts; for Human brain derived TDP-43 aggregates Mean % competition at 2 μM: non-radiolabeled compound at 2 μM vs tritiated reference ligand at 40 nM
# T1 construct: Human FTD sarkosyl-insoluble brain extracts were spotted onto microarray slides
# T1 sequence (Q13148 261-414 limits assumed): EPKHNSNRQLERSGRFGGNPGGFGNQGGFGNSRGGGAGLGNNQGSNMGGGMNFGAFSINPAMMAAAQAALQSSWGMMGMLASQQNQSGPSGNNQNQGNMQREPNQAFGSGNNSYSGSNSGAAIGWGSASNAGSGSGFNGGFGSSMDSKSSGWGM
# Description: Human brain extracts were prepared as described in Laferriere et al., 2019, Nature Neurosc. A sample of brain tissue (frontal or temporal cortex) was homogenized at 1:4 (w/v) ratio in the homogenization-solubilization (HS) buffer at 4° C. using tissue homogenizer (Precellys) with CKmix homogenization tubes. The following sequence was used for homogenization: 3 cycles of 30 seconds at 5000 rpm (with 15 seconds pause between each cycle). Homogenized samples were aliquoted and stored at −80° C. in 1.5 mL low protein binding tubes.
# Brain homogenates were thawed on ice and resuspended in HS buffer to obtain a final concentration of 2% sarkosyl, 1 unit/μL Benzonase and 1 mM MgCl2. The samples were then incubated at 37° C. under constant shaking at 600 rpm on a thermomixer for 45 minutes (min). The supernatants were collected in a new tube (sarkosyl-soluble fraction, S1). The pellet was resuspended in 1000 μL of myelin floatation buffer and centrifuged at 20,000 g for 60 min at 4° C. The supernatant was carefully removed to remove all the floating lipids. This step was repeated if all the lipids could not be removed in a single step. The pellet was subsequently washed with Phosphate-Buffered Saline (PBS) and centrifuged for 30 min at 20,000 g at 4° C. The final pellet was resuspended in 200 μL PBS and stored at −80° C. (sarkosyl-insoluble fraction). The samples were analyzed by immunoblotting in denaturing conditions.
# Human FTD sarkosyl-insoluble brain extracts were spotted onto microarray slides. The slides were incubated with a tritiated reference ligand at 40 nM, and the example compounds (non-radiolabeled) at 2 μM and 250 nM. […] After incubation, slides were washed and scanned by a real-time autoradiography system (BeaQuant, ai4R). Quantification of the signal was performed by using the Beamage image analysis software (ai4R). Non-specific signal was determined with an excess of non-radiolabeled reference compound (2 μM) and specific binding was calculated by subtracting the non-specific signal from the total signal. Competition was calculated as percent, where 0% was defined as the specific binding in the presence of vehicle and 100% as the values obtained in the presence of excess of the non-radiolabeled reference compound. Ki values were calculated in GraphPad Prism8 by applying a nonlinear regression curve fit using a one site, specific binding model. Measurements were performed with at least two technical replicates in the two-concentration competition experiment and with one technical replicate in the experiments including a range of concentrations. For compounds tested in more than one experiment, the mean of the replicates or Ki values in independent experiments is reported.
Compound,Specific binding in FTLD-TDP type A compared to control [1],Micro-autoradiography silver grain accumulation on Tau tangles in AD brain sections [2],Ki [3] [µM],Human brain derived TDP-43 aggregates Mean % competition at 250 nM [3] [%],Human brain derived TDP-43 aggregates Mean % competition at 2 μM [3] [%],Displacement on FTLD-TDP type A and B compared to non-demented control [1],cARG displacement on FTLD-TDP Type A case [1],cARG displacement on FTLD-TDP Type B case [1],cARG displacement on non-demented control [1]
"[3H]c1cncc(N2CCc3nc(-c4cc([3H])c(N5CC[C@@H](F)C5)nc4F)sc3C2=O)c1 [[^3H]-Compound 1, tritiated 2-[2-fluoro-6-[(3R)-3-fluoropyrrolidin-1-yl]-3-pyridyl]-5-(3-pyridyl)-6,7-dihydrothiazolo[5,4-c]pyridin-4-one]",significantly higher specific binding,No accumulation of silver grains on Tau tangles,,,,,,,
"O=C1c2sc(-c3ccc(N4CC[C@@H](F)C4)nc3F)nc2CCN1c1cccnc1 [Compound 1, 2-[2-fluoro-6-[(3R)-3-fluoropyrrolidin-1-yl]-3-pyridyl]-5-(3-pyridyl)-6,7-dihydrothiazolo[5,4-c]pyridin-4-one]",,,0.022,65,78,increased displacement,3.3,3.2,1.9
"[3H]C([3H])(O)C1CCN(c2ccc(-c3nc4c(s3)C(=O)N(c3cccnc3)CC4)c(F)n2)CC1 [[^3H]-Compound 17, 2-(2-fluoro-6-(4-(hydroxymethyl-t2)piperidin-1-yl)pyridin-3-yl)-5-(pyridin-3-yl)-6,7-dihydrothiazolo[5,4-c]pyridin-4(5H)-one]",significantly higher specific binding,No accumulation of silver grains on Tau tangles,,,,,,,
"O=C1c2sc(-c3ccc(N4CCC(CO)CC4)nc3F)nc2CCN1c1cccnc1 [Compound 17, 2-(2-fluoro-6-(4-(hydroxymethyl)piperidin-1-yl)pyridin-3-yl)-5-(pyridin-3-yl)-6,7-dihydrothiazolo[5,4-c]pyridin-4(5H)-one]",,,0.041,73,85,increased displacement,2.9,2.6,1.7
